Assay results taken from article PMC12736535, “Generation and Characterization of Novel Contilisant+Tubastatin a Multitarget Small Molecules Against Glioblastoma” (Pharmaceutics, 2025).
Where two headings read alike, the source gives them in different places.

Assays:
[1] = biological target: T1, BChE (Homo sapiens, UniProt P06276); assay: BChE inhibition, Ellman's colorimetric method; format: biochemical; settings: for inhibition at 10 µM: read-out: ChE inhibition BChE %
Method: (§1) The inhibitory capacity of the compounds on ChEs was assessed using Ellman’s colorimetric method. Briefly, an inhibitor solution containing 10 µM of the MSMs and 0.3 mM DTNB was incubated for 20 min with the enzyme solution ([…]) at 37 °C. […] Inhibition percentages were calculated from these values. […] Further, enzyme kinetics were studied using different substrate and inhibitor concentrations. Results were represented in a Lineweaver–Burk plot using GraphPad Prism, and the constant of inhibition (Ki) was estimated from the point at which the line cuts the x-axis in the secondary plot.

[2] = biological target: T1, BChE; assay: BChE inhibition, Ellman's colorimetric method; format: biochemical; settings: read-out: ChE inhibition BChE %
[3] = In vivo toxicity, body weight; set-up: species or system athymic nude-Foxn1nu mice; settings: intraperitoneal, 3 days per week
[4] = biological target: T2, recombinant hMAO-B (Homo sapiens, UniProt P27338); assay: MAO-B inhibition assay; format: biochemical
T2 sequence (P27338 1-520): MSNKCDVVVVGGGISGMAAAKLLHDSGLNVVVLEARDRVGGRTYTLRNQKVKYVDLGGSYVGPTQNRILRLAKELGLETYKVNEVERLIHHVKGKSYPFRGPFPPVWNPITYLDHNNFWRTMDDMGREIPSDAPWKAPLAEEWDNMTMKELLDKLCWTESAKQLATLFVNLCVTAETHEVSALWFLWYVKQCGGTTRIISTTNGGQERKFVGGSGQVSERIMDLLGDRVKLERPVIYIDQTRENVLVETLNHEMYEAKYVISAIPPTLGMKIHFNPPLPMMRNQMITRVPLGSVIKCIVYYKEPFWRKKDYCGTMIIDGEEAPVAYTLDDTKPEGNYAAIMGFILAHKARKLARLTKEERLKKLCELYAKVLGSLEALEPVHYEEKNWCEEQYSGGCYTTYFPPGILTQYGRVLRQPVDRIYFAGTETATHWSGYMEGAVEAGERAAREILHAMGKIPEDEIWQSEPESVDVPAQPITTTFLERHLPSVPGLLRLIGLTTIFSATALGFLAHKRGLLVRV
Method: […] Next, horseradish peroxidase (200 U/mL), Ampliflu Red (20 mM) and tyramine hydrochloride (100 mM) (Sigma-Aldrich) were added, and absorbance was measured at 570 nm every 5 min for 30 min. The percentage of inhibition was calculated from the absorbance values.

[5] = system: U87 subcutaneous tumors; assay: Subcutaneous U87 tumor growth and tumor immunohistochemistry; format: in vivo, athymic nude-Foxn1nu mice; settings: 50 mg/kg i.p.
Method: For carcinogenesis studies, subcutaneous tumor growth experiments were performed via the injection of 5 × 10^5 cells into two bottom flanks of athymic nude-Foxn1^nu mice. Once tumors reached a size of 25–50 mm^3, mice were sorted into different treatment groups based on their gender and tumor size. An external caliper was used for tumor size measurement, and the tumor volume was estimated using the formula V = L·W^2·0.5 (where L is tumor length and W is tumor width). […] Sample size was calculated, taking into account that control groups could have an average size of 700 mm^3 and we wanted to detect a difference of […]. For the cytotoxic experiment, 8 controls and 8 treated animals were used, while for the efficacy experiment 12 control animals and 8 treated animals were used.
Subcutaneous tumors were extracted, fixed with 4% formaldehyde for 48 h and embedded in paraffin. Tumor sections were obtained and stainings for Ki67 (Ab16667, Abcam), acetyl H3 (9649, Cell Signaling) and acetylated α-tubulin (ab179484, Abcam) were performed. A ZEISS Axioscan 7 slide scanner was used to capture images of the stainings, and analyses were performed using Qupath.

[6] = system: RWP1 pancreatic cancer cells; assay: MTT cell viability, RWP1; format: cell-based; settings: Homo sapiens, 72 h
Method: (§2) U87-MG, U251-MG and NCI-H1299 cells were purchased from ATCC, while MKN45 was obtained from the Leibniz Institute DSMZ-German Collection of Microorganisms and Cell Cultures and the RWP1 cell line was kindly provided by Dr. Francisco Real. Cells were cultured in DMEM or RPMI (Gibco, Waltham, MA, USA) supplemented with 10% FBS, 100 U/mL penicillin and streptomycin and 2 mM L-Glutamine. Patient-derived glioma neural stem cells (GNS166 and GNS179) were kindly provided by Dr. Steve Pollard. These cells were cultured in adhesion plates treated with laminin A in DMEM/F12 media (Gibco) supplemented with N2 (Gibco), B27 (Gibco), D-(+)-Glucose solution 45% (Sigma-Aldrich, Burlington, MA, USA), basic Fibroblast Growth Factor (Gibco) and epidermal growth factor (Sigma-Aldrich). Normal human astrocytes (NHAs) were purchased from ScienCell and cultured using an astrocyte medium kit (ScienCell, San Diego, CA, USA) supplemented with FBS and Astrocyte Growth Supplement (AGS). All cells were maintained at standard conditions of 37 °C, 95% humidity, 21% O2 and 5% CO2, and cultures were regularly tested for Mycoplasma.
(§3) Cells were seeded in 96-well plates at a density of 1.5 × 10^3 or 5 × 10^3 cells/well (conventional cell lines or GNS and NHAs, respectively) and incubated overnight. […] Then, absorbance at 570 nm was measured. […]

[7] = system: GNS166, GNS179, U87 and U251 cells; assay: Immunofluorescence of Ki67, p-H3 and cleaved caspase-3; format: cell-based, human; settings: 1, 3 and 5 μM, 48 h, all glioma cell types
Method: For immunofluorescence assays, cells were seeded at a density of 2 × 10^4 cells/well in 8-well immunofluorescence chambers (LabTek Thermo, Waltham, MA, USA) and incubated overnight. Then, cells were treated for 48 h and fixed with 4% PFA. Primary antibodies against phospho-histone H3 (p-H3) (Abcam), cleaved caspase-3 (Casp3) (R&D Systems, Minneapolis, MN, USA) and Ki67 (Abcam) and secondary antibodies Alexa Fluor anti-mouse and anti-rabbit (Invitrogen, Carlsbad, CA, USA) were used. Nuclei were stained with DAPI (Sigma-Aldrich). Pictures were taken with an Axio Observer 7 epifluorescence microscope, and Qupath version 0.6.0 was used for quantifications. Percentages of Ki67-, p-H3- and Casp3-positive cells were calculated, taking into account the number of nuclei.

[8] = system: NHA primary human astrocytes; assay: MTT cell viability, NHA; format: cell-based; settings: Astrocyte, 72 h, non-tumor cells
Method: as §2, §3

[9] = system: MKN45 gastric cancer cells; assay: MTT cell viability, MKN45; format: cell-based; settings: Homo sapiens, MKN-45, 72 h
Method: as §2, §3

[10] = biological target: AChE (Homo sapiens, UniProt P22303); assay: AChE inhibition, Ellman's colorimetric method; format: biochemical; settings: read-out: ChE inhibition AChE %
AChE, sequence (P22303 32-614): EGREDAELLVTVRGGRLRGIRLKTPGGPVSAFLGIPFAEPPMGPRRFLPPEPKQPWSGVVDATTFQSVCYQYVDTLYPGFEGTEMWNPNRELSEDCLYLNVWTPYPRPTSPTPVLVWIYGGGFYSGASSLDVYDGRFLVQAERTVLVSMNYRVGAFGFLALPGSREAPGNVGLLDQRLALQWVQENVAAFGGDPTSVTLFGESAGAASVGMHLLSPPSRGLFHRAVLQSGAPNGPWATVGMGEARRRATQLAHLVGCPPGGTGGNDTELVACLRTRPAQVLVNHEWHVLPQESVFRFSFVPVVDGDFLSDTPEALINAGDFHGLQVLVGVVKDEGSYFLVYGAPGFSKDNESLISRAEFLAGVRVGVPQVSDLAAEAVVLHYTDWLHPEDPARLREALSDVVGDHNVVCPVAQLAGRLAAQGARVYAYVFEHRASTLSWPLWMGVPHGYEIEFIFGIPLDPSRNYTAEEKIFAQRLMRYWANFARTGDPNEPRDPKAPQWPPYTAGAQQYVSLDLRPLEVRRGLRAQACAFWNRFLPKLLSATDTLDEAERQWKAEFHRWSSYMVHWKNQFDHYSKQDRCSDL
Method: as §1

[11] = system: U251 glioma cells; assay: MTT cell viability, U251; format: cell-based; settings: Homo sapiens, U-251, 72 h, read-out: IC50 U251 (GBM)
Method: as §2, §3

[12] = system: H1299 lung cancer cells; assay: MTT cell viability, H1299; format: cell-based, human; settings: Homo sapiens, NCI-H1299, 72 h
Method: as §2
(§4) Cells were seeded in 96-well plates at a density of 1.5 × 10^3 or 5 × 10^3 cells/well (conventional cell lines or GNS and NHAs, respectively) and incubated overnight. Next, cells were treated with increasing concentrations of the compounds, and after 72 h, they were incubated for 3.5 h with MTT. Then, absorbance at 570 nm was measured. GraphPad Prism software version 10.4.1 was used to calculate the IC50 values.

[13] = system: GNS166 cells; assay: RNA-seq; format: cell-based, human; settings: 5 µM
Description: For transcriptomic analysis, total RNA was extracted and samples were sent to BGI Tech Solutions. […] Genes presenting a fold-change value ≥4 or ≤−4 and an FDR-adjusted p-value < 0.01 were defined as differentially expressed and used to perform downstream enrichment studies.

[14] = system: U87 glioblastoma cells; assay: MTT cell viability, U87; format: cell-based; settings: Homo sapiens, 72 h, read-out: IC50 U87 (GBM)
Method: as §2, §4

[15] = system: GNS166 patient-derived glioma stem cells; assay: MTT cell viability, GNS166; format: cell-based; settings: Homo sapiens, 72 h, read-out: IC50 GNS166 (GBM)
Method: as §2, §3

[16] = system: HDAC6; assay: Western blot of acetylated α-tubulin (HDAC6 target); format: cell-based, human; settings: GNS166 and U87 cells
Method: Sodium dodecyl sulfate–polyacrylamide gel electrophoresis was performed. Primary antibodies against HDAC1 (Abcam, Cambridge, UK) and HDAC6 (Cell Signaling, Dancers, MA, USA) and their main targets, acetylated H3 (Cell Signaling) and acetylated α-tubulin (Abcam), were used; acetylated lysine (Cell Signaling) and β-actin (Sigma-Aldrich) were used as endogenous controls. Secondary antibodies conjugated to horseradish peroxidase were anti-rabbit or anti-mouse (Cell Signaling). Proteins were detected using the iBright imaging system and NOVEX ECL Chemi Substrate or SuperSignal West Femto Maximum Sensitivity Substrate (ThermoFisher, Waltham, MA, USA).

[17] = biological target: T3, recombinant hMAO-A (Homo sapiens, UniProt P21397); assay: MAO-A inhibition assay; format: biochemical; settings: read-out: MAO inhibition MAO-A %
T3 sequence (P21397 1-527): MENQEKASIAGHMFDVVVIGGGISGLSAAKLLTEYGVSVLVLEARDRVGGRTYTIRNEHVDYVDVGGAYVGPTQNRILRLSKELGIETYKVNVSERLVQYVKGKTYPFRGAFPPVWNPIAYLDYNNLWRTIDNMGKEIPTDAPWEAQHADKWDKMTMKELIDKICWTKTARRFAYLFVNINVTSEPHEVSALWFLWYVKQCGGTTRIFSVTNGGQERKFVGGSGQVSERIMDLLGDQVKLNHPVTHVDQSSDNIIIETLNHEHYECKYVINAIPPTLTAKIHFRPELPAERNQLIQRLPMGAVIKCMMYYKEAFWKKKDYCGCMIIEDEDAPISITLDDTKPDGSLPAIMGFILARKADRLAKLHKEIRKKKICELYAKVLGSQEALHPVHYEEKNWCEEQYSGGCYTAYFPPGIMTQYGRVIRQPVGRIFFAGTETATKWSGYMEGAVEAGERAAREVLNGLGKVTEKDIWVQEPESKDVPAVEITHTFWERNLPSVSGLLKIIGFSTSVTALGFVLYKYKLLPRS
Method: For MAO inhibition studies, the enzyme solution (0.5 U/mL recombinant hMAO-A or 1.5 U/mL recombinant hMAO-B) was incubated with an inhibitor solution containing 10 µM of the compounds for 30 min at 37 °C. Next, horseradish peroxidase (200 U/mL), Ampliflu Red (20 mM) and tyramine hydrochloride (100 mM) (Sigma-Aldrich) were added, and absorbance was measured at 570 nm every 5 min for 30 min. The percentage of inhibition was calculated from the absorbance values.

[18] = increasing concentrations of inhibitor

T1 sequence (P06276 29-602, species assumed): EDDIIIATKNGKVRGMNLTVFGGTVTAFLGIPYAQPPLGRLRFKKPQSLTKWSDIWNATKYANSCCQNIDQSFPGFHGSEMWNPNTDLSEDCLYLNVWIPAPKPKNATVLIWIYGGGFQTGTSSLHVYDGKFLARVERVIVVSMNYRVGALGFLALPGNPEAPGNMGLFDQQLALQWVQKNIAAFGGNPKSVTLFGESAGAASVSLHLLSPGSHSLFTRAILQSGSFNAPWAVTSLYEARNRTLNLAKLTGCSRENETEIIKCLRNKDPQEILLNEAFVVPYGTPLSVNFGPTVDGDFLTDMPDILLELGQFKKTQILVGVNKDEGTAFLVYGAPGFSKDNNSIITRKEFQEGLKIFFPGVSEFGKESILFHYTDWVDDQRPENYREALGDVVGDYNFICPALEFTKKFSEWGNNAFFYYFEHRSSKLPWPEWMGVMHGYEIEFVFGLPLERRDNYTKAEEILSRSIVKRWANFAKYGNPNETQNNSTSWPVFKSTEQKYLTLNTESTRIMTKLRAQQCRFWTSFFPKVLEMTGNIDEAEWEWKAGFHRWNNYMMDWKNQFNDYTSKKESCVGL

CCN(C)C(=O)Oc1cccc([C@H](C)N(C)C)c1 [Rivastigmine, reference compound]
inhibition at 10 µM [1]: 100% | inhibition at 1 µM [2]: 100%

CCCNNC(=O)c1ccc(S(=O)(=O)n2ccc3cc(OCCCN4CCCCC4)ccc32)cc1 [FRB44]
body weight vs control animals [3]: no statistically significant differences | inhibition at 1 µM ([4]; 1 μM): 18% | MAO inhibition MAO-B % ([4]; 10 μM): 70% | inhibition at 10 µM ([4]; 10 μM): 69% | IC50 [4, 18]: 3.16 µM | final tumor weight, lower compared to controls [5]: 62.5% | final tumor volume ([5]; 3 days per week for 4 weeks, control ~750): ~ 325 mm^3 | decrease in the number of Ki67-positive cells (IHC) ([5]; resected tumors): around 30% | IC50 [6]: 0.7 µM | Type of inhibition [1]: Mixed | ChE inhibition BChE % ([1]; 10 μM): 70% | inhibition at 10 µM ([1]; 10 μM): 71% | Type of inhibition ([1]; BChE, Lineweaver-Burk plot): mixed inhibition | Ki ([1]; BChE, secondary plot of Lineweaver-Burk slopes): 1.36 µM | IC50 [1, 18]: 8.24 µM | proliferative markers (Ki67- and p-H3-positive cells) [7]: clear reductions | IC50 [8]: 41.4 µM | IC50 [9]: 4.1 µM | inhibition at 1 µM ([2]; 1 μM): 20% | inhibition at 10 µM [10]: 24% | IC50 [11]: 3.1 µM | IC50 [12]: 11 µM | FC of CDKN1A (RNA-seq) [13]: 3.53 fold | FC of MKI67 (RNA-seq) [13]: 0.09 fold | IC50 [14]: ~1.5 µM | IC50 [15]: 15 µM | levels of acetyl-α-tubulin [16]: increased

C#CCN(C)CCCOc1ccc(Cl)cc1Cl [Clorgiline, reference compound]
inhibition at 1 µM [17]: 100% | inhibition at 10 µM [17]: 98%
